Results as given in US6306422A, “Compositions and devices for controlled release of active ingredients” (priority 1998, dated 2001).
Counter-ions that a name gives are not always drawn.

Columns and labels:
struvite encrustation = settings: cited from earlier work
[1] = in vivo; cited from earlier work
[2] = test system: Proteus sp. and other urease-producing organisms; settings: cited from earlier work
[3] = cited from earlier work
[4] = cited from earlier work; remark: listed apart in the source
urease = target: T1, urease (Proteus mirabilis, UniProt P17086); test: Bacteria/urease study: pH of artificial urine with Proteus mirabilis; format: cell-based; settings: 10^11 bacteria/ml
T1 construct: endogenous in cells; host or cells: living Proteus mirabilis (clinic isolate) in artificial urine
T1 sequence (P17086 whole entry): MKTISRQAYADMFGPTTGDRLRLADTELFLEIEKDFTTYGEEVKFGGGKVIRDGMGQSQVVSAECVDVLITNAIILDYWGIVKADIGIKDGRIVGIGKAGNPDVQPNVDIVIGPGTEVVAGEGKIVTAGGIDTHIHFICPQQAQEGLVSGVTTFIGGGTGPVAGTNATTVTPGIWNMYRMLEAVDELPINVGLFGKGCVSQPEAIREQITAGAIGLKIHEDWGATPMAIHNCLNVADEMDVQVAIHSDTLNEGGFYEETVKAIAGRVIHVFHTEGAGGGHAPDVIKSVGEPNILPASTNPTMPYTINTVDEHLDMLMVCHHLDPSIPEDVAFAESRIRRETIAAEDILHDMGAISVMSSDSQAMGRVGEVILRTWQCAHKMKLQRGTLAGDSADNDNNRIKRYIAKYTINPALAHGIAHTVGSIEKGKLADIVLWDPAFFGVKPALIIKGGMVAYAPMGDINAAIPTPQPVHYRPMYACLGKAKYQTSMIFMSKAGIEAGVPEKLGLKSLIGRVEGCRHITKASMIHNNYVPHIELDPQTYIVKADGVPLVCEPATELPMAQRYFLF
T1 sequence (P17088 whole entry, further chain): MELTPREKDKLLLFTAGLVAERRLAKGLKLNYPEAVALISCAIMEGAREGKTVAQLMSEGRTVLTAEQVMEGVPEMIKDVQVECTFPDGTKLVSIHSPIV
T1 sequence (P17087 whole entry, further chain): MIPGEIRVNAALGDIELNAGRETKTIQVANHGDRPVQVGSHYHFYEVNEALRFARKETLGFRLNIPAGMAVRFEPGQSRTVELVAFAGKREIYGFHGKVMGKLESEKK
Protocol: After mixing, the urine was filter-sterilized into a sterile container using a 0.2 μm pore size filtration system. A solution of this artificial urine containing 750 μg/ml of AHA was prepared by dissolving 0.0757 g of the AHA in 100 ml of the urine. This solution was then diluted in series to yield artificial urine with AHA concentrations of 375, 187.5, 75, and 7.5 μg/ml.
Fifty milliliters of these solutions were sterilized by filtering them through a syringe filter with 0.2 μm pore size into a sterile container.
Proteus mirabilis were harvested from the Surgery/Urology clinic at the University of Florida, Gainesville, Fla. These bacteria were cultured on a heart infusion agar (Difco Laboratories) for 48 hours at 37° C. Bacteria were aseptically harvested and suspended in a solution of artificial urine not containing any of the urease inhibitor. Dilutions of this suspension were made to 10,000, and a count of the bacteria was made on a microscopic counting grid. The initial concentration of bacteria was back-calculated by using the Petroff-Hauser formula shown in equation two. [formula]
For the urine solutions containing the urease inhibitor and two control solutions (one containing bacteria and the other without), a series of six test tubes was set up. […] The pH of each of the samples was measured initially and then at 2 hour intervals up to 12 hours. […]

bacteria = settings: cited from earlier work
[5] = Swelling in solvents for drug loading and AHA loading of the hydrogel; format: physicochemical
Protocol: Six pieces of the MMA/AA (90/9) polymer were weighed in the dry state. Each piece was placed into 4 ml of a separate solvent. The solvents used were pH buffers with pH values of 4.0, 7.4, and 9.0, 90 v/v % ethanol, methanol, and 90 v/v % acetone at 37° C. […] A 16 w/w % solution of acetohydroxamic acid in 90% acetone was prepared.
Hydrogel pieces were weighed in the dry state. Six pieces weighing approximately the same were separated out for each respective pH buffer value. Each gel piece was individually placed into a test tube containing 3 ml of the 16% AHA acetone solution. The test tubes were capped and wrapped in parafilm to prevent evaporation of the solvent. The test tubes were placed into a 37° C. water bath for 48 hours. The hydrogel pieces were then removed from the AHA solution and placed in a vacuum oven at 60° C. for solvent evaporation and then at room temperature for a total drying time of 72 hours. The drug-loaded gels were then reweighed, and the total AHA content was calculated.
Absorbances for each of the solutions were measured at 515 nm on a Perkin-Elmer Lambda 3B UV/VIS Spectrophotometer. A calibration curve was calculated from the standard concentration solutions. The concentrations of the AHA were calculated from the absorbances and raised to the initial surface area of the gel matrix.

[6] = cited from earlier work; remark: listed apart in the source

Chondroitin sulfate
prevention of struvite encrustation (struvite encrustation): ineffective

Gentamicin
toxicity limiting plasma concentrations [1]: systemic nephrotoxicity | effectiveness against Proteus sp. and other urease-producing organisms [2]: highly effective

CC(=O)NO [AHA, acetohydroxamic acid]
pKa [3]: 9.3 | absorption from the gastrointestinal tract ([4]; human, in vivo): well absorbed | adverse effects limiting use ([4]; patients): Coomb's hemolytic anemia, GI complaints, bone marrow depression, and teratogenicity | effect of AHA on the activity of urease (pH of artificial urine) (urease; AHA 7.5-750 μg/ml, 37° C., up to 24 hours): resists pH increase for a longer time and experiences a smaller overall pH increase | concentration of AHA giving therapeutic benefit (urease; artificial urine): 7.5 µg/mL | effect of the presence of AHA on methenamine (bacteria): increases the antibacterial activity of the methenamine | concentration near the saturation point ([5]; in 90% acetone): ~16 w/w % | solubility of AHA in the chosen solutions ([5]; pH 4.0, 7.4, 9.0 buffers, 90 v/v % ethanol, methanol, 90 v/v % acetone): very soluble

heparin sulfate
prevention of struvite encrustation (struvite encrustation): ineffective

O=C(O)CC(O)(CC(=O)O)C(=O)O [Sodium citrate]
prevention of struvite encrustation (struvite encrustation): shows potential

[H]/N=C(\N/C(=N/[H])NCCCCCCNC(=N)NC(=N)Nc1ccc(Cl)cc1)Nc1ccc(Cl)cc1 [chlorhexidine]
solubility in alcohols [6]: highly soluble

O=C(O)CNC(=O)c1ccccc1 [hippuric acid]
solubility in alcohols [6]: highly soluble
